Consider 13 compounds from PubChem BioAssay (NCI).

Molecules are shown by their SMILES.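 Where inhibition never reached the appropriate level, the endpoint shown equals the highest concentration tested. Otherwise, values were interpolated linearly from a five-concentration, 48-hour dose response in 96-well plates. GI50: concentration for 50% inhibition of growth. Definition used: TGI = concentration required for complete inhibition of growth.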

Some test systems named below: A549 NSCLC; EKVX NSCLC; HCC-2998 colon; HL-60(TB) leukemia; HT29 colon; IGROV1 ovarian; SK-MEL-2 melanoma; SK-MEL-5 melanoma; UACC-257 melanoma; UO-31 renal.
Assay in all cases: inhibition of tumour cell growth, NCI panel, 48 h

`CC1=CC(C)C/C=C/C2C3OC3(C)C(C)C3C(Cc4c[nH]c5ccccc45)NC(=O)C23C(=O)C=CC(=O)C1O` (stereo not drawn): the TGI with A549 NSCLC came out at 26.6 µM; in the assay with EKVX NSCLC it was 14.7 µM; in the assay on HCC-2998 colon it was 21.7 µM; in the assay with HL-60(TB) leukemia it was 5.55 µM; in the assay on HT29 colon, 6.66 µM; in the assay on IGROV1 ovarian, 24.6 µM. The TGI in the assay with SK-MEL-2 melanoma was 34.6 µM; in the assay on SK-MEL-5 melanoma, 24.4 µM; in the assay on UACC-257 melanoma it was 16.4 µM; with UO-31 renal, 6.05 µM.
With `CN(C)CCCNC(=O)c1cc2[nH]c3c(cnc4ccc([N+](=O)[O-])cc43)c(=O)c2n1C`, the GI50 in the assay with A549 NSCLC is 17.9 µM; with EKVX NSCLC, 23.5 µM; with HCC-2998 colon, 15.6 µM; in the assay on HL-60(TB) leukemia, 12.2 µM; in the assay with HT29 colon, 5.93 µM; in the assay on IGROV1 ovarian, 12.5 µM. Further, the GI50 is greater than 100 µM with SK-MEL-2 melanoma, 17.1 µM in the assay on SK-MEL-5 melanoma, 21.2 µM in the assay with UACC-257 melanoma and 17 µM with UO-31 renal. The TGI with A549 NSCLC worked out at 32.1 µM; with EKVX NSCLC, 52.3 µM; in the assay with HCC-2998 colon, 29 µM; with HL-60(TB) leukemia, 34.4 µM; with HT29 colon, 18.6 µM; in the assay on IGROV1 ovarian, 27.7 µM. Besides, the TGI with SK-MEL-2 melanoma was greater than 100 µM; with SK-MEL-5 melanoma, 31.1 µM; in the assay on UACC-257 melanoma, 39.7 µM; with UO-31 renal, 32.1 µM.
For the compound `CC(=O)N(C)c1ccc(Nc2cc(C)[nH]c3ccc4ncnc4c23)cc1`, the TGI amounted to 21.7 µM with A549 NSCLC; 50.5 µM with EKVX NSCLC; 22.3 µM in the assay on HCC-2998 colon; 18.9 µM in the assay with HL-60(TB) leukemia; 34 µM with HT29 colon; 64.4 µM in the assay with IGROV1 ovarian. In addition, the TGI worked out at 23.2 µM in the assay with SK-MEL-2 melanoma, 17.7 µM in the assay on SK-MEL-5 melanoma, 26.7 µM in the assay with UACC-257 melanoma and 56.3 µM in the assay on UO-31 renal.
Consider `O=c1cnn(C/C=C/CBr)c(=O)[nH]1`, for which the TGI was 33.9 µM with A549 NSCLC; 39.2 µM in the assay with EKVX NSCLC; 34.7 µM with HCC-2998 colon; 26.5 µM in the assay on HL-60(TB) leukemia; 29.2 µM in the assay with HT29 colon; 37.7 µM with IGROV1 ovarian. The TGI is 42.2 µM in the assay with SK-MEL-2 melanoma, 26.6 µM in the assay on SK-MEL-5 melanoma, 26.9 µM in the assay on UACC-257 melanoma and 28.8 µM in the assay with UO-31 renal.
Take `COc1ccc(C2COc3cc(OC(C)=O)c(OC(C)=O)cc3C2)cc1` (stereo not drawn): the TGI with A549 NSCLC is 52.5 µM; with EKVX NSCLC, 51.1 µM; in the assay on HCC-2998 colon, 48.3 µM; in the assay with HL-60(TB) leukemia, 7.32 µM; in the assay with HT29 colon, 56.1 µM; in the assay with IGROV1 ovarian, 55.9 µM. Besides, the TGI is 58.7 µM in the assay with SK-MEL-2 melanoma, 48.2 µM in the assay on SK-MEL-5 melanoma, 46.5 µM in the assay on UACC-257 melanoma and 40.6 µM in the assay on UO-31 renal.
For `O=C(O)c1ccc(Nc2c3ccccc3nc3ccccc23)cc1`, the TGI in the assay on A549 NSCLC, in the assay with EKVX NSCLC, in the assay with HCC-2998 colon, in the assay with HL-60(TB) leukemia, in the assay on HT29 colon and in the assay with IGROV1 ovarian was greater than 100 µM in each case. Besides, the TGI in the assay on SK-MEL-2 melanoma, in the assay with SK-MEL-5 melanoma, with UACC-257 melanoma and with UO-31 renal was greater than 100 µM in each case.
For `c1nc(OCC2CCCCC2)c2[nH]cnc2n1`, the TGI in the assay on A549 NSCLC, in the assay with EKVX NSCLC, in the assay on HCC-2998 colon, in the assay on HL-60(TB) leukemia, in the assay on HT29 colon and in the assay with IGROV1 ovarian was greater than 100 µM each time. Besides, the TGI in the assay on SK-MEL-2 melanoma, in the assay with SK-MEL-5 melanoma, in the assay on UACC-257 melanoma and in the assay on UO-31 renal was greater than 100 µM throughout.
As for `CC(C)(C)[Si](OC1CC(n2cnc3c(N)ncnc32)OC1CO)(c1ccccc1)c1ccccc1` (stereo not drawn), the TGI in the assay with A549 NSCLC is 30 µM; with EKVX NSCLC, 41.7 µM; in the assay with HCC-2998 colon it was greater than 100 µM; with HL-60(TB) leukemia, greater than 100 µM; in the assay with HT29 colon, 30.2 µM; in the assay on IGROV1 ovarian it was 48 µM. Moreover, the figures for the TGI in the assay with SK-MEL-2 melanoma, in the assay with UACC-257 melanoma and in the assay on UO-31 renal were 36.1 µM, greater than 100 µM and 68.1 µM, respectively.
Take `O=C(O)CC(CC(=O)O)C(=O)O`: the TGI in the assay with A549 NSCLC, in the assay on EKVX NSCLC, with HCC-2998 colon, in the assay on HL-60(TB) leukemia, in the assay on HT29 colon and in the assay on IGROV1 ovarian was greater than 100 µM throughout. Moreover, the TGI with SK-MEL-2 melanoma, with SK-MEL-5 melanoma, in the assay with UACC-257 melanoma and in the assay with UO-31 renal was greater than 100 µM in each case.
Turning to `Cc1cc(C)n(C(=C(C(Cl)=C(Cl)Cl)[N+](=O)[O-])n2nc(C)cc2C)n1`, the TGI in the assay on A549 NSCLC came to 11.4 µM; in the assay on EKVX NSCLC, 6.27 µM; in the assay on HCC-2998 colon, 12.5 µM; in the assay with HL-60(TB) leukemia it was 3.92 µM; in the assay with HT29 colon it was 11.5 µM; in the assay on IGROV1 ovarian it was 14.9 µM. Moreover, the TGI with SK-MEL-2 melanoma came out at 4.18 µM; with SK-MEL-5 melanoma, 3.88 µM; with UACC-257 melanoma it was 11.5 µM; in the assay on UO-31 renal, 11.3 µM.
As to `O=C1C(Cl)N(c2ccc(Cl)cc2)C1c1c[nH]c2ccccc12` (stereo not drawn), the TGI was greater than 100 µM with A549 NSCLC; 32.5 µM in the assay with EKVX NSCLC; 44.5 µM in the assay with HL-60(TB) leukemia; 37.5 µM with HT29 colon; 62.6 µM with IGROV1 ovarian; 29.3 µM in the assay with SK-MEL-2 melanoma. For the same compound, the TGI stood at 31 µM in the assay with SK-MEL-5 melanoma, 31.6 µM in the assay on UACC-257 melanoma and 35 µM in the assay on UO-31 renal.
`COc1ccc(N2C(=O)/C(=C(\C)c3cc4ccccc4oc3=O)N=C2c2cc([N+](=O)[O-])ccc2Cl)cc1`: the TGI was greater than 100 µM in the assay with A549 NSCLC; greater than 100 µM with EKVX NSCLC; greater than 100 µM with HCC-2998 colon; 70.8 µM in the assay on HL-60(TB) leukemia; greater than 100 µM in the assay on HT29 colon; greater than 100 µM in the assay with IGROV1 ovarian. In addition, the TGI with SK-MEL-2 melanoma, in the assay with SK-MEL-5 melanoma, in the assay on UACC-257 melanoma and in the assay with UO-31 renal was greater than 100 µM each time.
In the case of `C/C(=N\NC(=S)N1CCCCC1)c1nc2ncccc2[nH]1`, the TGI with A549 NSCLC was 96.4 µM; in the assay with EKVX NSCLC it was 98.2 µM; in the assay on HCC-2998 colon, greater than 100 µM; in the assay with HL-60(TB) leukemia, 19.1 µM; in the assay on HT29 colon, greater than 100 µM; in the assay on IGROV1 ovarian it was greater than 100 µM. The TGI with SK-MEL-2 melanoma is greater than 100 µM; in the assay on SK-MEL-5 melanoma, 12.3 µM; in the assay on UACC-257 melanoma, 31.9 µM; in the assay on UO-31 renal it was greater than 100 µM.
